Data reported in patent US7030143B2, “Heterocyclic compounds” (Nippon Shinyaku Co., Ltd., priority 2000, dated 2006).
Each block holds one compound with its values, some of them ahead of it.

Legend:
KK-A^y mice = experiment: Effects on carbohydrate and lipid metabolism in KK-A^y mouse; format: in vivo; settings: oral, 4 days; for Percent change of each parameter compared to control group (%): AI: Atherogenic Index = (TC − HDL-C)/HDL-C; for Percent change of each parameter compared to control group (%): BG: plasma glucose level; for Percent change of each parameter compared to control group (%): Ins: plasma insulin level; for Percent change of each parameter compared to control group (%): TG: plasma triglyceride level; for Percent change of each parameter compared to control group (%): HDL-C: serum HDL-C level; for Percent change of each parameter compared to control group (%): (V)LDL-C: sum of VLDL-C and LDL-C level in serum
Experimental: The experiment was conducted using the compounds described in the Examples as test compounds and Troglitazone (5-[4-(6-hydroxy-2,5,7,8-tetramethylchroman-2-ylmethoxy)benzyl]-2,4-thiazolidinedione) as a control compound.
Each test compound was orally administered to KK-A^y mice (10 week old, male), NIDDM model animal, for 4 days at a given dosage. On the next day of the last administration, blood was collected from tail end blood vessels under non-fasting conditions to prepare heparinized plasma. Thereafter, blood was collected from an abdominal large vein under pentobarbital anesthesia to prepare serum. The glucose level (BG), triglyceride level (TG) and insulin level (Ins) in plasma were measured using a glucose CII-test Wako (Wako Pure Chemical Industries, Ltd), CLINTECH TG-S (IATORON LABORATORIES, INC.) or triglyceride E-test WAKO (Wako Pure Chemical Industries, Ltd), and a rat insulin measurement kit (Morinaga Biochemistry Research Institute) or REBIS-insulin-mouse-T (Mouse Insulin ELISA (TMB) KIT, Shibayagi Co., Ltd), respectively. Also, the sum of VLDL-C level and LDL-C level in serum (hereinafter, referred to as “(V)LDL-C”), total cholesterol level (TC) and HDL-C level were measured using a high performance liquid chromatography system for the measurement of lipoprotein cholesterol (TOSOH CORPORATION). (V)LDL-C level was measured because VLDL-C and LDL-C cannot be measured separately. Atherogenic Index (AI) was calculated according to the following formula: AI=[(TC level)−(HDL-C level)]/(HDL-C level).

melting point: 66 to 68 °C
Compound: Cc1oc(-c2ccccc2)nc1CCCCCOC(C)(C)C(=O)O (hydrate or solvate) [Example 34, 2-Methyl-2-[5-(5-methyl-2-phenyloxazol-4-yl)pentyloxy]propionic acid]

melting point: 70 to 71 °C
Compound: Cc1oc(-c2ccccc2)nc1CCCCCCCOC(C)(C)C(=O)O [Example 36, 2-Methyl-2-[7-(5-methyl-2-phenyloxazol-4-yl)heptyloxy]propionic acid]

melting point: 64 to 67 °C
Compound: Cc1oc(-c2ccc(F)cc2)nc1CCCCCCOC(C)(C)C(=O)O [Example 40, 2-{6-[2-(4-Fluorophenyl)-5-methyloxazol-4-yl]hexyloxy}-2-methylpropionic acid]

melting point: 89 to 91 °C
Compound: Cc1oc(-c2ccc(C(C)(C)C)cc2)nc1CCCCCCOC(C)(C)C(=O)O [Example 41, 2-{6-[2-(4-tert-Butylphenyl)-5-methyloxazol-4-yl]hexyloxy}-2-methylpropionic acid]

melting point: 88.5 to 89 °C
Compound: CCc1oc(-c2ccccc2)nc1CCCCCCOC(C)(C)C(=O)O [Example 42, 2-[6-(5-Ethyl-2-phenyloxazol-4-yl)hexyloxy]-2-methylpropionic acid]

melting point: 75 to 77 °C
Compound: CC(C)(OCCCCCCc1coc(-c2ccccc2)n1)C(=O)O [Example 43, 2-Methyl-2-[6-(2-phenyloxazol-4-yl)hexyloxy]propionic acid]

melting point: 72 to 75 °C
Compound: CC(C)(OCCCCCCCc1coc(-c2ccccc2)n1)C(=O)O [Example 44, 2-Methyl-2-[7-(2-phenyloxazol-4-yl)heptyloxy]propionic acid]

melting point: 59 to 61 °C
Compound: CC(C)(OCCCCCCCCc1coc(-c2ccccc2)n1)C(=O)O [Example 45, 2-Methyl-2-[8-(2-phenyloxazol-4-yl)octyloxy]propionic acid]

melting point: 91 to 93 °C
Compound: CC(C)(OCCCCCCCc1coc(-c2ccc(Cl)cc2)n1)C(=O)O [Example 46, 2-{7-[2-(4-Chlorophenyl)oxazol-4-yl]heptyloxy}-2-methylpropionic acid]

melting point: 67 to 74 °C
Compound: CC(C)(OCCCCCCCc1coc(-c2ccc(F)cc2)n1)C(=O)O [Example 47, 2-{7-[2-(4-Fluorophenyl)oxazol-4-yl]heptyloxy}-2-methylpropionic acid]

melting point: 80 to 83 °C
Compound: CC(C)(OCCCCCCc1coc(-c2ccc(F)cc2)n1)C(=O)O [Example 48, 2-{6-[2-(4-Fluorophenyl)oxazol-4-yl]hexyloxy}-2-methylpropionic acid]

melting point: 71 to 72 °C
Compound: CC(C)(OCCCCCCCc1csc(-c2ccccc2)n1)C(=O)O [Example 49, 2-Methyl-2-[7-(2-phenylthiazol-4-yl)heptyloxy]propionic acid]

melting point: 64 to 70 °C
Compound: CC(C)(OCCCCCCCCc1csc(-c2ccccc2)n1)C(=O)O [Example 50, 2-Methyl-2-[8-(2-phenylthiazol-4-yl)octyloxy]propionic acid]

melting point: 91 to 93 °C
Compound: Cc1oc(-c2ccncc2)nc1CCCCCCOC(C)(C)C(=O)O [Example 51, 2-Methyl-2-{6-[5-methyl-2-(4-pyridyl)oxazol-4-yl]hexyloxy}propionic acid]

Compound: Cc1ccc(-c2nc(CCCCC3COC(C)(C(=O)O)OC3)c(C)o2)cc1C (stereo not shown) [Example 73, 2-Methyl-c-5-{4-[5-methyl-2-(3,4-dimethylphenyl)-oxazol-4-yl]butyl}-1,3-dioxane-r-2-carboxylic acid]
Percent change of each parameter compared to control group (%): AI (KK-A^y mice; dose 3 mg/kg): −85% | Percent change of each parameter compared to control group (%): BG (KK-A^y mice; dose 3 mg/kg): −53% | Percent change of each parameter compared to control group (%): Ins (KK-A^y mice; dose 3 mg/kg): −68% | Percent change of each parameter compared to control group (%): TG (KK-A^y mice; dose 3 mg/kg): −92% | Percent change of each parameter compared to control group (%): HDL-C (KK-A^y mice; dose 3 mg/kg): −8% | Percent change of each parameter compared to control group (%): (V)LDL-C (KK-A^y mice; dose 3 mg/kg): −90%

Compound: COc1ccc(-c2nc(CCCCC3COC(C)(C(=O)O)OC3)c(C)o2)cc1 (stereo not shown) [Example 74, 2-Methyl-c-5-{4-[5-methyl-2-(4-methoxyphenyl)oxazol-4-yl]butyl}-1,3-dioxane-r-2-carboxylic acid]
Percent change of each parameter compared to control group (%): AI (KK-A^y mice; dose 3 mg/kg): −72% | Percent change of each parameter compared to control group (%): BG (KK-A^y mice; dose 3 mg/kg): −18% | Percent change of each parameter compared to control group (%): Ins (KK-A^y mice; dose 3 mg/kg): −33% | Percent change of each parameter compared to control group (%): TG (KK-A^y mice; dose 3 mg/kg): −46% | Percent change of each parameter compared to control group (%): HDL-C (KK-A^y mice; dose 3 mg/kg): 55% | Percent change of each parameter compared to control group (%): (V)LDL-C (KK-A^y mice; dose 3 mg/kg): −58%

Compound: Cc1oc(-c2cccs2)nc1CCCCC1COC(C)(C(=O)O)OC1 (stereo not shown) [Example 75, 2-Methyl-c-5-{4-[5-methyl-2-(2-thienyl)oxazol-4-yl]butyl}-1,3-dioxane-r-2-carboxylic acid]
Percent change of each parameter compared to control group (%): AI (KK-A^y mice; dose 3 mg/kg): −61% | Percent change of each parameter compared to control group (%): BG (KK-A^y mice; dose 3 mg/kg): −23% | Percent change of each parameter compared to control group (%): Ins (KK-A^y mice; dose 3 mg/kg): −29% | Percent change of each parameter compared to control group (%): TG (KK-A^y mice; dose 3 mg/kg): −47% | Percent change of each parameter compared to control group (%): HDL-C (KK-A^y mice; dose 3 mg/kg): 37% | Percent change of each parameter compared to control group (%): (V)LDL-C (KK-A^y mice; dose 3 mg/kg): −50%

Compound: Cc1ccc(-c2nc(Cc3cccc(CC4COC(C)(C(=O)O)OC4)c3)c(C)o2)cc1 (stereo not shown) [Example 81, 2-Methyl-t-5-[3-{[5-methyl-2-(p-tolyl)oxazol-4-yl]methyl}benzyl]-1,3-dioxane-r-2-carboxylic acid]
Percent change of each parameter compared to control group (%): AI (KK-A^y mice; dose 1 mg/kg): −83% | Percent change of each parameter compared to control group (%): BG (KK-A^y mice; dose 1 mg/kg): −8% | Percent change of each parameter compared to control group (%): Ins (KK-A^y mice; dose 1 mg/kg): −21% | Percent change of each parameter compared to control group (%): TG (KK-A^y mice; dose 1 mg/kg): −62% | Percent change of each parameter compared to control group (%): HDL-C (KK-A^y mice; dose 1 mg/kg): 32% | Percent change of each parameter compared to control group (%): (V)LDL-C (KK-A^y mice; dose 1 mg/kg): −76%

melting point: 36 °C
Compound: Cc1ccc(-c2nc(CCCCCCOC(C)(C)C#N)c(C)o2)cc1 [Example 85, 2-Methyl-2-{6-[5-methyl-2-(p-tolyl)oxazol-4-yl]-hexyloxy}propiononitrile]

melting point: 87 °C
Compound: Cc1ccc(-c2nc(CCCCCCOC(C)(C)c3nnn[nH]3)c(C)o2)cc1 [Example 86, 5-[1-Methyl-1-{6-[5-methyl-2-(p-tolyl)oxazol-4-yl]hexyloxy}ethyl]tetrazole]

Compound: Cc1c(C)c2c(c(C)c1O)CCC(C)(COc1ccc(CC3SC(=O)NC3=O)cc1)O2 (stereo not shown) [Troglitazone, 5-[4-(6-hydroxy-2,5,7,8-tetramethylchroman-2-ylmethoxy)benzyl]-2,4-thiazolidinedione, reference compound]
Percent change of each parameter compared to control group (%): AI (KK-A^y mice; dose 300 mg/kg): −7% | Percent change of each parameter compared to control group (%): BG (KK-A^y mice; dose 300 mg/kg): −9% | Percent change of each parameter compared to control group (%): Ins (KK-A^y mice; dose 300 mg/kg): −22% | Percent change of each parameter compared to control group (%): TG (KK-A^y mice; dose 300 mg/kg): −11% | Percent change of each parameter compared to control group (%): HDL-C (KK-A^y mice; dose 300 mg/kg): −8% | Percent change of each parameter compared to control group (%): (V)LDL-C (KK-A^y mice; dose 300 mg/kg): −26%
